Reference: patent publication US20160206688A1, “METHODS FOR TREATING BACTEREMIA AND OSTEOMYELITIS USING ORITAVANCIN” (THE MEDICINES COMPANY, priority 2013, published 2016)
≈ marks a conversion by molar mass, not a printed value.

Key:
[1] = test system: E. faecalis; assay: Broth microdilution MIC, European bacteraemia isolates 2010-2012; format: cell-based, Enterococcus faecalis
Protocol: (§1) A total of 2,904 clinical strains responsible for documented bacteremia among unique hospitalized patients in 38 hospitals in 11 European Union countries. Israel, Russia, Turkey and Ukraine were included in this study (2010-2012). Isolates were submitted to a central monitoring laboratory (JMI Laboratories, North Liberty. Iowa. USA), following previously established protocols. Bacterial species identification was performed by using an automated system (Vitek®2; bioMèrieux, Hazelwood, Mo., USA) or conventional biochemical algorithms, as required.
(§2) Isolates were tested for susceptibility by broth microdilution methods following the Clinical and Laboratory Standards Institute (CLSI; M07-A9, 2012) document. Susceptibility testing was performed in cation-adjusted Mueller-Hinton broth (CA-MHB) using dry-form panels manufactured by Thermo Fisher Scientific, formerly TREK Diagnostics Systems/Sensititre (Cleveland. Ohio, USA). These panels provide results equivalent to the CLSI-approved broth microdilution method supplemented with 0.002% polysorbate-80.
(§3) Quality assurance was performed by concurrent testing of CLSI-recommended (M100-S23, 2013) strains: E. faecalis ATCC 29212 and S. aureus ATCC 29213. Interpretation of comparator MIC results was in accordance with published CLSI (M100-S23) and European Committee on Antimicrobial Susceptibility Testing (EUCAST, 2013) criteria.

[2] = test system: S. agalactiae; assay: Broth microdilution MIC, US isolates 2011-2012, blood vs non-blood; format: cell-based
Protocol: (§4) 527 E. faecalis, 176 E. faecium, and 790 BHS (335 S. pyogenes and 455 S. agalactiae) clinical, single patient, non-consecutive isolates were collected in 2011-2012 from 46 sites geographically distributed across the United States. The MICs were determined by broth microdilution testing performed in accordance with CLSI M7 and M100 guidelines. From the resulting database, this analysis focused on the activities of ORI, vancomycin (VAN), daptomycin (DAP), and linezolid (LZD) according to specimen source.

[3] = test system: S. pyogenes; assay: as above; format: cell-based
Protocol: as §4

[4] = test system: E. faecium; assay: as above; format: cell-based
Protocol: as §4

[5] = test system: E. faecalis; assay: as above; format: cell-based
Protocol: as §4

[6] = test system: VRE; assay: Susceptibility of the subject's blood culture isolate (treatment history); format: cell-based
Source text: 11, 2013; the plan was for at least 8 weeks of antibiotic therapy.

[7] = test system: MDR SA; assay: Microdilution MIC against MDR SA by specimen source; format: cell-based, S. aureus
Protocol: 456 clinical, single-patient, non-consecutive, MDR SA isolates from the known specimen sources collected in 2011-2012 were analyzed. MDR was defined as resistant to ≧3 of the following: erythromycin, clindamycin, gentamicin, levofloxacin, and trimethoprim/sulfamethoxazole. 382 were MRSA and 74 were MSSA. MICs were determined by microdilution testing in accordance with CLSI M7 and M100 guidelines. Although other comparator drugs were tested, this analysis focuses on the activities of ORI, VAN, DAP, and LZD.

[8] = test system: S. aureus; assay: Broth microdilution MIC, European bacteraemia isolates 2010-2012; format: cell-based; settings: S. aureus Methicillin-resistant (1,708)
Protocol: as §1, §2, §3

[9] = test system: E. faecium; assay: as above; format: cell-based, Enterococcus faecium; settings: for % Susceptible, CLSI: CLSI M100-S23 breakpoints; for MIC90: read-out: MIC 90%
Protocol: as §1, §2, §3

[10] = test system: Coagulase-negative staphylococci; assay: as above; format: cell-based, coagulase-negative staphylococci (CoNS); settings: Table 2, Coagulase-negative staphylococci (646)
Protocol: as §1, §2, §3

[11] = Table 2, E. faecium Vancomycin-susceptible (257)

In the case of `CCCCCCCCCC(=O)N[C@@H](Cc1c[nH]c2ccccc12)C(=O)N[C@H](CC(N)=O)C(=O)N[C@@H](CC(=O)O)C(=O)N[C@@H]1C(=O)NCC(=O)N[C@@H](CCCN)C(=O)N[C@@H](CC(=O)O)C(=O)N[C@H](C)C(=O)N[C@@H](CC(=O)O)C(=O)NCC(=O)N[C@H](CO)C(=O)N[C@@H]([C@H](C)CC(=O)O)C(=O)N[C@@H](CC(=O)c2ccccc2N)C(=O)O[C@@H]1C` [Daptomycin, daptomycin], the “% Susceptible, CLSI” value ([1]; E. faecalis (445), CLSI M100-S23 breakpoints) is reported as 100.0/— %, the “% susceptible” value ([1]; E. faecalis strains, criteria not stated) is reported as 100% and the MIC50 ([1]; Enterococcus faecalis, Table 2, E. faecalis (445), read-out: MIC 50%) is reported as 1 µg/mL (≈ 0.617 µM). For the same compound, the MIC90 ([1]; Enterococcus faecalis, Table 2, E. faecalis (445), read-out: MIC 90%) was 1 µg/mL (≈ 0.617 µM), the “MIC Range” value ([1]; Table 2, E. faecalis (445), includes four VanA-phenotype strains) was “≦0.06-4 mg/L” and the MIC90 ([2]; Blood, N 100) was 0.25 µg/mL (≈ 0.154 µM). It also gave an MIC90 ([2]; Non-Blood, N 355) of 0.25 µg/mL (≈ 0.154 µM), an MIC90 ([3]; Blood, N 53) of 0.06 µg/mL (≈ 0.037 µM) and an MIC90 ([3]; Non-Blood, N 282) of 0.06 µg/mL (≈ 0.037 µM). For the same compound, the MIC90 ([4]; Blood, N 84) was 4 µg/mL (≈ 2.47 µM), the MIC90 ([4]; Non-Blood, N 92) was 4 µg/mL (≈ 2.47 µM) and the MIC90 ([5]; Blood, N 116) was 2 µg/mL (≈ 1.23 µM). It also gave an MIC90 ([5]; Non-Blood, N 411) of 2 µg/mL (≈ 1.23 µM), an MIC ([6]; 2012 December) of 6 µg/mL (≈ 3.7 µM) and an MIC ([6]; 2012 July) of 4 µg/mL (≈ 2.47 µM). The susceptibility ([6]; 2012 July) was “borderline susceptible”, the MIC50 ([7]; Blood, n = 108) was 0.5 µg/mL (≈ 0.309 µM) and the MIC90 ([7]; Blood, n = 108) was 0.5 µg/mL (≈ 0.309 µM). For the same compound, the Mode (MIC) ([7]; Blood, n = 108) was 0.5 µg/mL, the “Range (MIC)” value ([7]; Blood, n = 108, in µg/mL) was 0.25-4 and the MIC50 ([7]; Respiratory, N = 157) was 0.5 µg/mL (≈ 0.309 µM). For the same compound, the MIC90 ([7]; Respiratory, N = 157) was 0.5 µg/mL (≈ 0.309 µM), the Mode (MIC) ([7]; Respiratory, N = 157) was 0.5 µg/mL and the “Range (MIC)” value ([7]; Respiratory, N = 157, in µg/mL) was 0.12-1. For the same compound, the MIC50 ([7]; Skin/Wound, N = 191) was 0.5 µg/mL (≈ 0.309 µM), the MIC90 ([7]; Skin/Wound, N = 191) was 0.5 µg/mL (≈ 0.309 µM) and the Mode (MIC) ([7]; Skin/Wound, N = 191) was 0.5 µg/mL. For the same compound, the “Range (MIC)” value ([7]; Skin/Wound, N = 191) was “≦0.06-1”, the “% Susceptible, CLSI” value ([8]; CLSI M100-S23 breakpoints) was 100.0/— % and the “% Resistant, EUCAST” value ([8]; EUCAST 2013 breakpoints) was 0.0%. The “% Susceptible, EUCAST” value ([8]; EUCAST 2013 breakpoints) was 100.0%, the MIC50 ([8]; Staphylococcus aureus, Table 2, read-out: MIC 50%) was 0.25 µg/mL (≈ 0.154 µM) and the MIC90 ([8]; Staphylococcus aureus, Table 2, read-out: MIC 90%) was 0.5 µg/mL (≈ 0.309 µM). The “MIC Range” value ([8]; Table 2) was 0.12 to 1 µg/mL, the “% Susceptible, CLSI” value ([9]; E. faecium Vancomycin-resistant (VanA-phenotype) (153)) was 100.0/— % and the “% Susceptible, CLSI” value ([9]; E. faecium Vancomycin-susceptible (257)) was 100.0/— %. The MIC50 ([9]; Enterococcus faecium, Table 2, E. faecium Vancomycin-resistant (VanA-phenotype) (153), read-out: MIC 50%) was 2 µg/mL (≈ 1.23 µM), the MIC90 ([9]; Enterococcus faecium, Table 2, E. faecium Vancomycin-resistant (VanA-phenotype) (153)) was 2 µg/mL (≈ 1.23 µM) and the MIC90 ([9]; Enterococcus faecium, Table 2, E. faecium Vancomycin-susceptible (257)) was 2 µg/mL (≈ 1.23 µM). For the same compound, the “MIC Range” value ([9]; Table 2, E. faecium Vancomycin-resistant (VanA-phenotype) (153)) was 0.25 to 4 µg/mL, the “MIC 50%” value [9, 11] was 2 µg/mL (≈ 1.23 µM) and the “MIC Range” value [9, 11] was 0.12 to 4 µg/mL. For the same compound, the “% susceptible” value ([9]; VanA-phenotype E. faecium, criteria not stated) was 100%, the “MIC Range” value [10] was “≦0.06-2 mg/L” and the MIC50 ([10]; read-out: MIC 50%) was 0.25 µg/mL (≈ 0.154 µM). It also gave an MIC90 ([10]; read-out: MIC 90%) of 0.5 µg/mL (≈ 0.309 µM).
